In US8530513B1, “Pharmaceutical uses of diterpene excavatolide B from a coral or an analogue thereof” (National Sun Yat-Sen University, priority 2012, dated 2013):

System: IL-6
Experiment: LPS-induced IL-6 expression in mouse bone marrow-derived dendritic cells, ELISA
Format: cell-based
Settings: DCs co-treated with LPS and BrDs at 20 μM
Text: For mouse bone marrow-derived DCs (BMDCs), five to six-week-old female C57BL/6JNarl mice were purchased from the National Laboratory Animal Center, Taiwan and kept under SPF conditions. BMDCs were generated from bone marrow cells of C57BL/6 mice as described previously (Yin S Y, Wang W H, Wang B X, Aravindaram K, Hwang P I, Wu H M, Yang N S. BMC genomics 2010, 11:612). In brief, bone marrow was isolated from femurs and tibiae which were then flushed with RPMI-1640 medium using a syringe with a 0.45-mm needle on Day 0. Red blood cells in suspension were lysed for […] with ACK lysing buffer (150 mM NH4Cl, 1.0 mM KHCO3, 0.1 mM EDTA). Bone marrow cells were suspended at a density of 1×10^7 cells/30 ml in RPMI-1640 containing 10% FBS, 2 mM L-glutamine, 1% of nonessential amino acids, 100 U/mL penicillin and 100 μg/mL streptomycin supplemented with 20 ng/mL of mGM-CSF in 15-cm dishes at 37° C. with 5% CO2. On day 2, two-thirds of the medium was removed and 30 mL fresh medium with mGM-CSF was added to the cells. On day 5, culture plates were gently swirled and the floating and loosely adherent cells were discarded. Aliquots of 75% culture media were replenished with 20 ng/mL mGM-CSF and 20 ng/mL mIL-4. On day 7, mouse BMDCs (95% pure CD11b and MHC II) were harvested and incubated in RPMI 1640 medium containing 1 mM sodium pyruvate, 0.1 mM nonessential amino acids, 100 U/ml penicillin, 100 μg/ml streptomycin, and supplemented with 10% fetal bovine serum (Invitrogen, Carlsbad, Calif.) for 24 h at 37° C. with or without test chemicals in the presence or absence of LPS (100 ng/ml).
BMDCs were treated with or without test chemicals in the presence or absence of LPS (100 ng/ml) for 24 h at 37° C. Aliquots of supernatants from DC cultures were assayed for IL-6 and TNF-α using commercial ELISA kits (R&D Systems, Minneapolis, Minn.) following the manufacturer's recommendations.
Several studies have reported that the secretion of specific cytokines, including IL-1β, TNF-α and IL-6 by keratinocytes and various immune cells is involved in cutaneous inflammation (Nestle F O, Di Meglio P, Qin J Z, Nickoloff B J. Nature reviews Immunology 2009, 9:679-691; De Vry C G, Valdez M, Lazarov M, Muhr E, Buelow R, Fong T, Iyer S. J Invest Dermatol 2005, 125:473-481; Cumberbatch M, Dearman R J, Kimber I. Immunology 1996, 87:513-518). In order to investigate the anti-inflammatory effect of BrD1 on cytokine expression, mouse bone marrow-derived dendritic cells were used to evaluate the inhibitory effect of BrD1 on LPS-induced expressions of TNF-α and IL-6. In our time-course study for expression of TNF-α and IL-6, after LPS stimulation, a high expression of TNF-α and IL-6 was maintained at 24 h (FIG. 6A). We therefore chose 24 h as the time point at which to assess the expression of TNF-α and IL-6.

SMILES	inhibition of LPS-induced IL-6 expression (structure-activity relationship)
CCCCC(=O)O[C@H]1C[C@H](OC(C)=O)[C@@]2(C)[C@H]([C@H]1C)[C@H](OC(C)=O)[C@]13O[C@@]1(C)C(=O)O[C@H]3/C=C(/C)C[C@H](OC(=O)CCC)[C@@H]2OC(C)=O [BrD1-5C]	inhibitory activity gradually decreased
CCCCCC(=O)O[C@H]1C[C@H](OC(C)=O)[C@@]2(C)[C@H]([C@H]1C)[C@H](OC(C)=O)[C@]13O[C@@]1(C)C(=O)O[C@H]3/C=C(/C)C[C@H](OC(=O)CCC)[C@@H]2OC(C)=O [BrD1-6C]	inhibitory activity gradually decreased
CCCCCCC(=O)O[C@H]1C[C@H](OC(C)=O)[C@@]2(C)[C@H]([C@H]1C)[C@H](OC(C)=O)[C@]13O[C@@]1(C)C(=O)O[C@H]3/C=C(/C)C[C@H](OC(=O)CCC)[C@@H]2OC(C)=O [BrD1-7C]	inhibitory activity gradually decreased
CCCCCCCCCC(=O)O[C@H]1C[C@H](OC(C)=O)[C@@]2(C)[C@H]([C@H]1C)[C@H](OC(C)=O)[C@]13O[C@@]1(C)C(=O)O[C@H]3/C=C(/C)C[C@H](OC(=O)CCC)[C@@H]2OC(C)=O [BrD1-10C]	inhibitory activity gradually decreased
